PubChem BioAssay (NCI)
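Exposure lasted 48 hours, with cells grown in 96-well plates and compounds tested at five concentrations. GI50 is the concentration that inhibits growth by half. TGI: concentration producing complete growth inhibition.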

Tests used:
Assay in all cases: DTP human tumour cell line panel, 48 h
NCI-H23 lung = tested on: NCI-H23 lung
HCT-15 colon = tested on: HCT-15 colon
HOP-92 NSCLC = tested on: HOP-92 NSCLC
SW-620 colon = tested on: SW-620 colon
MDA-MB-435 = tested on: MDA-MB-435
KM12 colon = tested on: KM12 colon
RXF 393 renal = tested on: RXF 393 renal
SF-539 CNS = tested on: SF-539 CNS
COLO 205 colon = tested on: COLO 205 colon
SK-OV-3 ovarian = tested on: SK-OV-3 ovarian

**Q.** With O=C(/C(=C/c1cccc([N+](=O)[O-])c1)c1ccccc1)c1ccccc1 as the molecule, how does the GI50 (NCI-H23 lung) read?
**A.** 2.92 µM

**Q.** What about the TGI (NCI-H23 lung) of the same molecule?
**A.** 17 µM

**Q.** And the GI50 (HCT-15 colon)?
**A.** 2.75 µM

**Q.** And the TGI (HCT-15 colon)?
**A.** 16.5 µM

**Q.** And the GI50 (HOP-92 NSCLC)?
**A.** 1.97 µM

**Q.** What about the TGI (HOP-92 NSCLC) of the same molecule?
**A.** 6.95 µM

**Q.** What about the GI50 (SW-620 colon) of the same molecule?
**A.** 3.1 µM

**Q.** And the TGI (SW-620 colon)?
**A.** 9.19 µM

**Q.** And the GI50 (MDA-MB-435)?
**A.** 1.96 µM

**Q.** What about the TGI (MDA-MB-435) of the same molecule?
**A.** 4.43 µM

**Q.** And the GI50 (KM12 colon)?
**A.** 3.7 µM

**Q.** And the TGI (KM12 colon)?
**A.** 13.1 µM

**Q.** And the GI50 (RXF 393 renal)?
**A.** 3.39 µM

**Q.** And the TGI (RXF 393 renal)?
**A.** 9.06 µM

**Q.** What about the GI50 (SF-539 CNS) of the same molecule?
**A.** 3.49 µM

**Q.** What about the TGI (SF-539 CNS) of the same molecule?
**A.** 11.9 µM

**Q.** And the GI50 (COLO 205 colon)?
**A.** 3.82 µM

**Q.** And the TGI (COLO 205 colon)?
**A.** 13.3 µM

**Q.** What about the GI50 (SK-OV-3 ovarian) of the same molecule?
**A.** 3.69 µM

**Q.** What about the TGI (SK-OV-3 ovarian) of the same molecule?
**A.** 10.2 µM

**Q.** Which results are given for CC[C@H](C)[C@H]1O[C@]2(C=C[C@@H]1C)C[C@@H]1C[C@@H](C/C=C(\C)[C@@H](O[C@H]3C[C@H](OC)[C@@H](O[C@H]4C[C@H](OC)[C@@H](NC)[C@H](C)O4)[C@H](C)O3)[C@@H](C)/C=C/C=C3\CO[C@@H]4[C@H](O)C(C)=C[C@@H](C(=O)O1)[C@]34O)O2?
**A.** GI50 (NCI-H23 lung): 2.73 µM; TGI (NCI-H23 lung): 8.34 µM; GI50 (HCT-15 colon): 1.78 µM; TGI (HCT-15 colon): 4.46 µM; GI50 (HOP-92 NSCLC): 2.12 µM; TGI (HOP-92 NSCLC): 9.67 µM; GI50 (SW-620 colon): 2.14 µM; TGI (SW-620 colon): 4.74 µM; GI50 (MDA-MB-435): 1.79 µM; TGI (MDA-MB-435): 3.62 µM; GI50 (KM12 colon): 3.1 µM; TGI (KM12 colon): 11.4 µM; GI50 (RXF 393 renal): 2.03 µM; TGI (RXF 393 renal): 4.47 µM; GI50 (SF-539 CNS): 1.81 µM; TGI (SF-539 CNS): 3.37 µM; GI50 (COLO 205 colon): 1.77 µM; TGI (COLO 205 colon): 3.39 µM; GI50 (SK-OV-3 ovarian): 3.63 µM; TGI (SK-OV-3 ovarian): 13.9 µM

**Q.** With Cc1ccc2c(c1)CN(C(=O)CCC(=O)OCc1ccccc1)c1ccc(C)cc1CN2C(=O)CCC(=O)OCc1ccccc1 as the molecule, how does the TGI (NCI-H23 lung) read?
**A.** > 100 µM

**Q.** What about the TGI (HCT-15 colon) of the same molecule?
**A.** > 100 µM

**Q.** What about the TGI (HOP-92 NSCLC) of the same molecule?
**A.** > 100 µM

**Q.** And the TGI (SW-620 colon)?
**A.** > 100 µM

**Q.** What about the TGI (MDA-MB-435) of the same molecule?
**A.** > 100 µM

**Q.** And the TGI (KM12 colon)?
**A.** > 100 µM

**Q.** And the TGI (RXF 393 renal)?
**A.** > 100 µM

**Q.** And the TGI (SF-539 CNS)?
**A.** > 100 µM

**Q.** And the TGI (COLO 205 colon)?
**A.** > 100 µM

**Q.** And the TGI (SK-OV-3 ovarian)?
**A.** > 100 µM

**Q.** Which results are given for Clc1ccc(-c2c(C3=NCCCN3)nnn2-c2ccc(Cl)cc2)cc1?
**A.** TGI (NCI-H23 lung): > 100 µM; TGI (HCT-15 colon): > 100 µM; TGI (HOP-92 NSCLC): 64.5 µM; TGI (SW-620 colon): > 76.5 µM; TGI (MDA-MB-435): 35.9 µM; TGI (KM12 colon): > 77.5 µM; TGI (RXF 393 renal): 68.8 µM; TGI (SF-539 CNS): 67.5 µM; TGI (COLO 205 colon): 32.8 µM; TGI (SK-OV-3 ovarian): > 100 µM

**Q.** Which GI50 (NCI-H23 lung) does the source give for Cc1ccc2[nH]c(C(=O)NN3C(=O)C(C)SC34CCCC(C)C4)c(-c3ccccc3)c2c1 (stereo not given) here?
**A.** > 100 µM

**Q.** And the TGI (NCI-H23 lung)?
**A.** > 100 µM

**Q.** What about the GI50 (HCT-15 colon) of the same molecule?
**A.** 87 µM

**Q.** And the TGI (HCT-15 colon)?
**A.** > 100 µM

**Q.** What about the GI50 (HOP-92 NSCLC) of the same molecule?
**A.** > 100 µM

**Q.** And the TGI (HOP-92 NSCLC)?
**A.** > 100 µM

**Q.** What about the GI50 (SW-620 colon) of the same molecule?
**A.** > 100 µM

**Q.** What about the TGI (SW-620 colon) of the same molecule?
**A.** > 100 µM

**Q.** And the GI50 (MDA-MB-435)?
**A.** > 100 µM

**Q.** What about the TGI (MDA-MB-435) of the same molecule?
**A.** > 100 µM

**Q.** What about the GI50 (KM12 colon) of the same molecule?
**A.** 65.6 µM

**Q.** And the TGI (KM12 colon)?
**A.** > 100 µM

**Q.** And the GI50 (RXF 393 renal)?
**A.** 17.1 µM

**Q.** What about the TGI (RXF 393 renal) of the same molecule?
**A.** 84.7 µM

**Q.** And the GI50 (SF-539 CNS)?
**A.** > 100 µM

**Q.** And the TGI (SF-539 CNS)?
**A.** > 100 µM

**Q.** And the GI50 (COLO 205 colon)?
**A.** 94.1 µM

**Q.** And the TGI (COLO 205 colon)?
**A.** > 100 µM

**Q.** What about the GI50 (SK-OV-3 ovarian) of the same molecule?
**A.** > 100 µM

**Q.** What about the TGI (SK-OV-3 ovarian) of the same molecule?
**A.** > 100 µM

**Q.** Fc1ccc(-c2nn3ncccc3c2-c2ccnc(Nc3ccc4c(c3)OCCO4)n2)cc1 was tested. Which GI50 (NCI-H23 lung) did it give?
**A.** 6.8 µM

**Q.** And the TGI (NCI-H23 lung)?
**A.** > 25 µM

**Q.** And the GI50 (HCT-15 colon)?
**A.** 3.59 µM

**Q.** And the TGI (HCT-15 colon)?
**A.** 19.4 µM

**Q.** What about the GI50 (HOP-92 NSCLC) of the same molecule?
**A.** 2.61 µM

**Q.** What about the TGI (HOP-92 NSCLC) of the same molecule?
**A.** 18.8 µM

**Q.** What about the GI50 (SW-620 colon) of the same molecule?
**A.** 5.82 µM

**Q.** And the TGI (SW-620 colon)?
**A.** > 18.9 µM

**Q.** What about the GI50 (MDA-MB-435) of the same molecule?
**A.** 4.9 µM

**Q.** And the TGI (MDA-MB-435)?
**A.** > 21.5 µM

**Q.** What about the GI50 (KM12 colon) of the same molecule?
**A.** 5.32 µM

**Q.** What about the TGI (KM12 colon) of the same molecule?
**A.** 19.8 µM

**Q.** And the GI50 (RXF 393 renal)?
**A.** 1.07 µM

**Q.** And the TGI (RXF 393 renal)?
**A.** 7.22 µM

**Q.** And the GI50 (SF-539 CNS)?
**A.** 6.59 µM

**Q.** What about the TGI (SF-539 CNS) of the same molecule?
**A.** > 25 µM

**Q.** What about the GI50 (COLO 205 colon) of the same molecule?
**A.** 1.42 µM

**Q.** And the TGI (COLO 205 colon)?
**A.** > 25 µM

**Q.** And the GI50 (SK-OV-3 ovarian)?
**A.** 1.23 µM

**Q.** And the TGI (SK-OV-3 ovarian)?
**A.** > 25 µM

**Q.** With COc1cc2c(c(OC)c1OC)-c1c(cc3c(c1OC)OCO3)C1OC2C(C)C1C (stereo not given) (tested in a mixture with another compound) as the molecule, how does the TGI (NCI-H23 lung) read?
**A.** > 100 µM

**Q.** And the TGI (HCT-15 colon)?
**A.** > 100 µM

**Q.** What about the TGI (HOP-92 NSCLC) of the same molecule?
**A.** > 100 µM

**Q.** And the TGI (SW-620 colon)?
**A.** > 100 µM

**Q.** And the TGI (MDA-MB-435)?
**A.** > 100 µM

**Q.** And the TGI (KM12 colon)?
**A.** > 100 µM

**Q.** And the TGI (RXF 393 renal)?
**A.** > 100 µM

**Q.** And the TGI (SF-539 CNS)?
**A.** > 100 µM

**Q.** What about the TGI (COLO 205 colon) of the same molecule?
**A.** > 100 µM

**Q.** And the TGI (SK-OV-3 ovarian)?
**A.** > 100 µM
